# Experimental data reported in US5066658A, “Substituted hydroxyureas” (Ortho Pharmaceutical Corporation, priority 1990, dated 1991).
# How the values were obtained:
# 5-lipoxygenase = target: T1, 5-lipoxygenase (Rattus norvegicus, UniProt P12527); assay: Inhibition of 5-lipoxygenase in cell-free homogenate of rat basophilic leukemia (RBL-1) cells; type: biochemical; details: RBL-1 cell-free homogenate; for inhibition at 3 µM: read-out: Inhibition of 5-Lipoxygenase, % Inh. @ 3 μM
# T1 construct: The cell-free homogenate was prepared by sonication of the cells followed by centrifugation at 40,000 xg; endogenous in cells; host or cells: RBL-1 (rat basophilic leukemia) cells, 40,000 xg supernatant of the sonicate
# T1 sequence (P12527 1-673): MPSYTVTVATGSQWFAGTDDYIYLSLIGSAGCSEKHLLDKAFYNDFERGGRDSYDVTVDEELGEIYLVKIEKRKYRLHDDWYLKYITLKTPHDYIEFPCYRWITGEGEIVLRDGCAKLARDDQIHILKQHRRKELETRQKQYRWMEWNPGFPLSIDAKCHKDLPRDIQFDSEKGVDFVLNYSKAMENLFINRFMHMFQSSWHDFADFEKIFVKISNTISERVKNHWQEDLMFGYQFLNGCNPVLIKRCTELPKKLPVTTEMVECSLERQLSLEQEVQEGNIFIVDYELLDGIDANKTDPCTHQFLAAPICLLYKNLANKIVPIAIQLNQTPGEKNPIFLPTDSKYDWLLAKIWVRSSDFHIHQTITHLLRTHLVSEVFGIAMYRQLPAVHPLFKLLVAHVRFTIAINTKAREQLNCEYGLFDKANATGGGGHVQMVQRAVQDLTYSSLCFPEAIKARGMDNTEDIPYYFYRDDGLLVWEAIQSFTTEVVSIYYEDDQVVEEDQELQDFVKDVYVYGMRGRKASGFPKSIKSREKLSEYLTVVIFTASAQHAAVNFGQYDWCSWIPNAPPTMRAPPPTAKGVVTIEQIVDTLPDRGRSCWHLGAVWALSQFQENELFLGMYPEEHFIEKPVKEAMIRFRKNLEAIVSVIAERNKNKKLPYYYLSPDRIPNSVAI
# Procedure: The inhibition of 5-lipoxygenase was tested in a cell-free homogenate by the procedure of B. Jakschik et al., Biochem.Biophys.Res.Comm. 95, 103 (1980). Basically, rat basophilic leukemia cells (RBL-1 cells) were maintained in culture in a suitable medium, and were collected by centrifugation prior to assay. The cell-free homogenate was prepared by sonication of the cells followed by centrifugation at 40,000 xg. The CaCl2 dependent production of lipoxygenase products from ^14 C-arachidonic acid in the 40,000 xg supernatant was monitored in the presence of buffer (or other vehicle) or drug. Products were isolated by acidification and extraction, followed by thin layer chromatography. Radioactive areas corresponding to the authentic lipoxygenase products were quantitated by liquid scintillation counting. Data was reported as the IC50, the concentration causing 50% inhibition of the generation of lipoxygenase products. The results are shown it Table I as the percent inhibition at 3 μM or the amount of compound necessary to cause 50% inhibition.
# [1] = system: Arachidonate-Induced Bronchospasm (lipoxygenase); assay: Pulmonary Mechanics Assay: arachidonate-induced bronchospasm with indomethacin (SRS-A response, indicative of lipoxygenase inhibition); type: in vivo, male Hartley guinea pigs; details: Cavia porcellus, guinea pig; for inhibition in vivo at 15 mg/kg: IV dosing, read-out: Inhibition of Arachidonate-Induced Bronchospasm (IV Dosing), % Inh. with Indomethacin
# Procedure: (§1) The bronchodilating activity of the compounds was tested in a pulmonary mechanics assay. Basically, male Hartley guinea pigs (about 400-500 g) were anesthetized with urethane (2 g/kg, i.p.) and placed in a whole body Plethysmograph. Cannulations of a jugular vein and carotid artery were performed for compound administration and monitoring blood pressure, respectively. The trachea was cannulated for respiration at a constate volume via a miniature starling pump. A Validyne differential pressure transducer (±20 cm H2 O) sensed transpleural pressure via a 15 gauge needle inserted into the pleural cavity and a sidearm from the tracheal cannula. Tidal volume was sensed by another Validyne differential pressure transducer (±2 cm H2 O) from pressure changes inside the plethysmograph. An on-line Buxco pulmonary mechanics computer calculated air flow, dynamic lung compliance and lung resistance. The values were recorded on a print-out.
# (§2) The guinea pigs were pretreated with succinyl choline (1.2 mg/kg, i.v.) to arrest spontaneous respiration. A control challenge of arachidonic acid (0.5-1.0 mg/kg, i.v.) was administered, and the animals were then dosed with the test compound by various routes. At least 10 minutes were allowed to expire between arachidonic acid challenges. A second challenge was given and compared to the control response. This comparison was indicative of cyclooxygenase inhibition. Indomethacin (10 mg/kg, i.v.) was administered immediately after the second challenge. A third challenge of a higher dose of arachidonic acid (5-10 mg/kg, i.v.) was given. This response was induced by SRS-A and compared to the responses elicited by a separate control group of animals. Activity was indicative of lipoxygenase inhibition. Propranolol (0.005 mg/kg. i.v.) may be given prior to the third challenge to enhance the response to SRS-A.
# (§3) Bronchoconstriction induced by arachidonic acid with or without indomethacin was expressed as maximum percent change in dynamic lung compliance (Cdyn) and maximum percent increase in lung resistance (RL). Each guinea pig served as its own control for cyclooxygenase evaluation. The results are shown in Table I and are expressed as the percent inhibition of control.
# [2] = system: Arachidonate-Induced Bronchospasm (cyclooxygenase); assay: Pulmonary Mechanics Assay: arachidonate-induced bronchospasm without indomethacin (indicative of cyclooxygenase inhibition); type: in vivo, male Hartley guinea pigs; details: Cavia porcellus, guinea pig; for inhibition in vivo at 15 mg/kg: IV dosing, read-out: Inhibition of Arachidonate-Induced Bronchospasm (IV Dosing), % Inh. without Indomethacin
# Procedure: as §1, §2, §3
# [3] = system: Arachidonate-Induced Ear Edema; assay: Arachidonic Acid-Induced Ear Edema Assay; type: in vivo; details: topical, mouse ear; for inhibition in vivo at 0.4 mg: 400 μg topically; for inhibition in vivo at 0.4 mg / inhibition in vivo at 0.2 mg / inhibition in vivo at 0.1 mg: read-out: Inhibition of Arachidonate-Induced Ear Edema, % Inh. (μg topically); for inhibition in vivo at 0.2 mg: 200 μg topically; for inhibition in vivo at 0.1 mg: 100 μg topically
# Procedure: The topical anti-inflammatory activity of a compound was determined by its ability to inhibit an experimentally-induced inflammation in the mouse ear. Basically, four milligrams of arachidonic acid in acetone were applied to the dorsal surface of one ear with a microliter pipette. The mice were sacrificed at various times after application of arachidonic acid (one-half to six hours). A section of each ear was removed with a 7 mm round punch and weighed on an electronic or analytical balance. The difference in weight between treated and untreated ears was determined. Compounds to be evaluated for anti-inflammatory activity can be incorporated directly into the irritant mixture or at various times prior to or after application of arachidonic acid.
# The degree of anti-inflammatory activity is shown in Table I, and is expressed in terms of the percent inhibition of ear weight increase.
# [4] = ID dosing, read-out: Inhibition of Arachidonate-Induced Bronchospasm (ID Dosing), % Inh. with Indomethacin
# [5] = ID dosing, read-out: Inhibition of Arachidonate-Induced Bronchospasm (ID Dosing), % Inh. without Indomethacin
SMILES,IC50 (5-lipoxygenase),inhibition in vivo at 15 mg/kg [1],inhibition in vivo at 15 mg/kg [2],"Inhibition of Arachidonate-Induced Ear Edema, ED50 [3]",inhibition in vivo at 0.4 mg [3],inhibition at 3 µM (5-lipoxygenase),further results
"CCCCCCCCCCN(O)C(=O)N(C)C [Example 11, N,N-Dimethyl-N'-decyl-N'-hydroxyurea]",100 nM,98%,95%,43 µg,90%,–,"inhibition in vivo at 50 mg/kg [1, 4]: -46%; inhibition in vivo at 50 mg/kg [2, 5]: 36%"
"CCCCCCCCCCN(O)C(=O)NCCCCCCC(=O)OC [Example 6, N-[6-(Methoxycarbonyl)hexyl]-N'-decyl-N'-hydroxyurea]",–,< 20%,-45%,–,30%,100%,–
"CCCCCCCCCCNC(=O)N(C)O [Example 16, N-Decyl-N'-methyl-N'-hydroxyurea]",210 nM,58%,55%,28 µg,73%,–,"inhibition in vivo at 100 mg/kg ([1]; ID dosing, 100 mg/kg, read-out: Inhibition of Arachidonate-Induced Bronchospasm (ID Dosing), % Inh. with Indomethacin): 35%; inhibition in vivo at 100 mg/kg ([2]; ID dosing, 100 mg/kg, read-out: Inhibition of Arachidonate-Induced Bronchospasm (ID Dosing), % Inh. without Indomethacin): < 20%"
"CCCCCCCCCCNC(=O)N(O)CCCC(=O)OCC [Example 19, N-Decyl-N'-[3-(ethoxycarbonyl)propyl]-N'-hydroxyurea]",–,–,–,183 µg,60%,94%,"inhibition in vivo at 50 mg/kg [1, 4]: 0%; inhibition in vivo at 50 mg/kg [2, 5]: -89%"
"CCCCCCCCCCN(O)C(=O)NCCC(=O)OC [Example 4, N-[2-(Methoxycarbonyl)ethyl]-N'-decyl-N'-hydroxyurea]",–,< 20%,-39%,–,65%,100%,–
"CCCCCCCCCCN(O)C(=O)NC [Example 2, N-Methyl-N'-decyl-N'-hydroxyurea]",90 nM,44%,32%,29 µg,82%,–,–
"CCCCCCCCN(O)C(=O)N(C)C [Example 7, N,N-Dimethyl-N'-octyl-N'-hydroxyurea]",1800 nM,41%,61%,49 µg,–,77%,–
"CCCCCCCCCCCCN(O)C(=O)N(C)C [Example 13, N,N-Dimethyl-N.-dodecyl-N'-hydroxyurea]",–,66%,57%,–,–,95%,inhibition in vivo at 0.2 mg [3]: 90%
"CCCCCCCCCCN(O)C(=O)NCCCC(=O)OC [Example 5, N-[3-(Methoxycarbonyl)propyl]-N'-decyl-N'-hydroxyurea]",–,37%,< 20%,–,49%,100%,–
"CCCCCCCCCCCCCN(O)C(=O)N(C)C [Example 14, N,N-Dimethyl-N'-tridecyl-N'-hydroxyurea]",–,–,–,156 µg,–,95%,"inhibition in vivo at 50 mg/kg [1, 4]: 49%; inhibition in vivo at 50 mg/kg [2, 5]: -128%; inhibition in vivo at 0.2 mg [3]: 95%"
"CN(O)C(=O)NCCCCCCCOCc1ccccc1 [Example 39, N-[7-(Benzyloxy)heptyl]-N'hydroxy-N'-methylurea]",–,–,–,31 µg,–,100%,inhibition in vivo at 0.2 mg [3]: 70%
"COc1ccc(CCNC(=O)N(C)O)cc1OC [Example 40, N-[2-(3,4-Dimethoxyphenyl)ethyl]N'-hydroxy-N'-methylurea]",4300 nM,89%,86%,–,66%,–,"inhibition in vivo at 25 mg/kg ([1]; ID dosing, 25 mg/kg, read-out: Inhibition of Arachidonate-Induced Bronchospasm (ID Dosing), % Inh. with Indomethacin): 89%; inhibition in vivo at 25 mg/kg ([2]; ID dosing, 25 mg/kg, read-out: Inhibition of Arachidonate-Induced Bronchospasm (ID Dosing), % Inh. without Indomethacin): 69%"
"CCCCCCCCCCN1CCCN(O)C1=O [Example 26, 1-Decyl-3-hydroxy-3,4,5,6-tetrahydro-lH-pyrimidin-2-one]",700 nM,–,–,–,30%,–,–
"CCCCCCCCCCCN(O)C(=O)N(C)C [Example 12, N,N-Dimethyl-N'-undecyl-N'-hydroxyurea]",–,–,–,65 µg,–,100%,"inhibition in vivo at 50 mg/kg [1, 4]: 40%; inhibition in vivo at 50 mg/kg [2, 5]: -9%; inhibition in vivo at 0.2 mg [3]: 94%"
"CCCCCCCCCCC1CN(O)C(=O)N1C (stereo not shown) [Example 28, 4-Decyl-1-hydroxy-3-methylimidazolidin-2-one]",280 nM,–,–,134 µg,85%,96%,–
"CCCCCCCCCC(C)(C)NC(=O)N(C)O [Example 20, N-(1,1-Dimethyldecyl)-N'-methyl-N'-hydroxyurea]",–,–,–,–,–,65%,inhibition in vivo at 0.1 mg [3]: 47%
"COc1ccc(CC(C)(C)NC(=O)N(C)O)cc1OC [Example 56, N-[2-(3,4-Dimethoxyphenyl)-1,1-dimethylethyl]-N'hydroxy-N'-methylurea]",–,–,–,–,–,3%,inhibition in vivo at 0.1 mg [3]: 38%
"COc1ccc(CCNC(=O)N(OC(C)=O)C(C)(C)C)cc1OC [Example 52, N-[2-(3,4-Dimethoxyphenyl)ethyl]-N'-acetoxy-N'-t-butylurea]",–,–,–,–,–,9%,inhibition in vivo at 0.1 mg [3]: 69%
